{"source": "patent US20120277257A1", "about": "“Methods of Treating Diseases, Pharmaceutical Compositions, and Pharmaceutical Dosage Forms” (MYREXIS, INC., priority 2009, published 2012)", "key": {"[1]": {"tested_on": "K-562 erythroleukemia", "assay": "K-562 erythroleukemia xenograft", "type": "in vivo, mice", "details": "daily for 18 days"}, "[2]": {"tested_on": "Hsp70 protein levels in PBMCs", "assay": "Hsp70 protein levels in PBMCs of patients (ELISA)", "type": "in vivo, human", "details": "8 hours after the first dose, sustained on day 8 and day 22"}, "[3]": {"tested_on": "NCI-N87 Her2+ gastric cancer", "assay": "NCI-N87 (Her2+) gastric cancer xenograft in athymic nude mice", "type": "in vivo", "experimental": "The efficacy of Compound 1 was compared to that of SNX-5422 (Serenex, Pfizer, Inc.) on the growth of NCI-N87 (Her2+) human gastric cancer cells as a xenograft in athymic nude mice model. Animals were dosed with either 200 mg/kg of Compound 1 on days 1 through 21 or 40 mg/kg of SNX-5422 thrice weekly for three weeks. Tumor volumes and body weights were determined from Days 1 to 39.\nFive million NCI-N87 cells were implanted subcutaneously in the right flank of female nude mice (Hsd:athymic nude-Foxn1^nu). When the median tumor volume was approximately 123 mm^3, mice were randomized into three cohorts of ten animals. One cohort was dosed orally with vehicle, one cohort was dosed orally with Compound 1 (200 mg/kg) formulated in vehicle, and one cohort was dosed orally with SNX-5422 (40 mg/kg) formulated in dimethylacetamide/polyethylene glycol 300. Vehicle and Compound 1 were administered on days 1-21 and SNX-5422 was administered thrice weekly on Days 1, 3, 5, 8, 10, 12, 15, 17 and 19. The mice were observed daily for mortality and signs of toxicity.\nXenografted mice bearing N-87 tumors (median volume ˜125 mm^3) were dosed orally with Compound 1 for three weeks with the dosing schedules indicated in FIG. 4.\nAdditionally, xenografted mice bearing N-87 tumors (median volume ˜115 mm^3) were dosed orally with Compound 1 for twenty-one days at 200 mg/kg, once daily or 100 mg/kg, twice-daily as indicated in FIG. 5. Tumor growth inhibition (TGI) was monitored up to Day 39."}, "[4]": {"tested_on": "DU-145 prostate cancer", "assay": "DU-145 prostate cancer xenograft", "type": "in vivo, mice", "details": "200 mg/kg oral, 5-days-on/2-days-off, after 5 cycles"}, "[5]": {"assay": "Phase I clinical trial, human plasma pharmacokinetics of oral Compound 1", "type": "in vivo", "details": "for AUC(0-inf) / Vd/F / AUC(0-t) / Cmax / Tmax / half-life: human, plasma, po; for Vd/F: read-out: Vz/F; for AUC(0-t): read-out: AUC(0-24)", "experimental": "A human clinical study was initiated at a starting dose of 50 mg/m^2. Subjects had recurrent cancer refractory to available systemic therapy. Compound 1 was administered daily by mouth in tablet form for 21 consecutive days in a 28 day cycle to each enrolled subject. […] Plasma was collected pre-dose only for cycle 1 day 8. […] Patients were men and women with metastatic cancer, ranged in age from 45 to 85 years, and received doses ranging from 50 mg/m^2 to 340 mg/m^2, with a total daily dose of 100-740 mg (Tables 2A and 2B)."}, "[6]": {"details": "both sexes, 50 mg/m^2, Day 01, Cohort 1, 50 mg/m^2 (100 mg), oral daily"}, "[7]": {"details": "both sexes, 100 mg/m^2, Day 01, Cohort 2, 100 mg/m^2 (160 mg), oral daily"}, "[8]": {"details": "both sexes, 165 mg/m^2, Day 01, Cohort 3, 165 mg/m^2 (300 mg), oral daily"}, "[9]": {"details": "both sexes, 240 mg, Day 01, Cohort 6 (BID), N = 4, 240 mg, oral twice daily"}, "[10]": {"details": "both sexes, 240 mg, Day 21, Cohort 6 (BID), N = 2, 240 mg, oral twice daily"}, "[11]": {"details": "both sexes, 245 mg/m^2, Day 01, Cohort 4, 245 mg/m^2 (340-540 mg), oral daily"}, "[12]": {"details": "both sexes, 340 mg/m^2, Day 01, Cohort 5 (BID), N = 6, 340 mg/m^2 (270-370 mg), oral twice daily"}, "[13]": {"details": "both sexes, Day 21, Cohort 4, N = 6, 176-245 mg/m^2 (340-540 mg), oral daily"}, "[14]": {"details": "50 mg/m^2, Day 01, Cohort 1, Subject 101, 50 mg/m^2 (100 mg), oral daily"}}, "note": "Where two headings read alike, the source gives them in different places.", "data": [{"molecule": "C[C@H](O)C(=O)N1CCC(CCn2c(Sc3cc4c(cc3Br)OCO4)nc3c(N)ncnc32)CC1", "note": "[Compound 1, (2S)-1-[4-(2-{6-amino-8-[(6-bromo-1,3-benzodioxol-5-yl)thio]-9H-purin-9-yl}ethyl)piperidin-1-yl]-1-oxopropan-2-ol]", "values": [{"measurement": "TGI (tumor growth inhibition)", "setting": "[1]; 150 mg/kg oral, p = 0.14", "value": "82% TGI (p = 0.14) 150 mg/kg,"}, {"measurement": "TGI (tumor growth inhibition)", "setting": "[1]; 200 mg/kg oral, p = 0.05", "value": "97% TGI (p = 0.05)"}, {"measurement": "Hsp70 levels in protein extracts derived from PBMCs", "setting": "[2]", "value": "showed an increase"}, {"measurement": "tumor regression", "setting": "[3]; 200 mg/kg oral, 5-days-on/2-days-off, after 3 cycles", "value": "44% regression after 3 cycles"}, {"measurement": "tumor regression", "setting": "[3]; 200 mg/kg oral, QOD (once every-other-day) for three weeks, Day 21", "value": 7, "unit": "%"}, {"measurement": "tumor regression", "setting": "[3]; 200 mg/kg oral, daily for 21 days, Day 21 (dosing schedule study)", "value": 40, "unit": "%"}, {"measurement": "decrease in median tumor volume", "setting": "[3]; 200 mg/kg oral, days 1-21, by day 21", "value": 40, "unit": "%"}, {"measurement": "TGI (tumor growth inhibition)", "setting": "[3]; 200 mg/kg oral, twice weekly for three weeks, Day 21", "value": 100, "unit": "%"}, {"measurement": "TGI (tumor growth inhibition)", "setting": "[3]; 200 mg/kg oral, weekly (Days 1, 8, 15), Day 21, p = 0.1", "value": "54% TGI (p = 0.1) Day 21"}, {"measurement": "TGI (tumor growth inhibition)", "setting": "[3]; 400 mg/kg oral, twice weekly for three weeks, Day 21", "value": 95, "unit": "%"}, {"measurement": "tumor growth inhibition compared with SNX-5422", "setting": "[3]; Compound 1 200 mg/kg daily vs SNX-5422 40 mg/kg thrice weekly", "value": "as effective as SNX-5422"}, {"measurement": "TGI (tumor growth inhibition), average", "setting": "[4]", "value": "Average of ~80% TGI after 5"}, {"measurement": "CL/F", "setting": "[5]; Day 01, Cohort 1, 50 mg/m^2 (100 mg), oral daily", "value": 4098, "unit": "mL/h"}, {"measurement": "CL/F", "setting": "[5]; Day 01, Cohort 2, 100 mg/m^2 (160 mg), oral daily", "value": 4343, "unit": "mL/h"}, {"measurement": "CL/F", "setting": "[5]; Day 01, Cohort 3, 165 mg/m^2 (300 mg), oral daily", "value": 2405, "unit": "mL/h"}, {"measurement": "CL/F", "setting": "[5]; Day 01, Cohort 4, 245 mg/m^2 (340-540 mg), oral daily", "value": 3118, "unit": "mL/h"}, {"measurement": "CL/F", "setting": "[5]; Day 01, Cohort 5 (BID), 340 mg/m^2 (270-370 mg), oral twice daily", "value": 2517, "unit": "mL/h"}, {"measurement": "CL/F", "setting": "[5]; Day 01, Cohort 5, 340 mg/m^2 (480-620 mg), oral daily", "value": 2500, "unit": "mL/h"}, {"measurement": "CL/F", "setting": "[5]; Day 01, Cohort 6 (BID), 240 mg, oral twice daily", "value": 5956, "unit": "mL/h"}, {"measurement": "CL/F", "setting": "[5]; Day 19, Cohort 1, 50 mg/m^2 (100 mg), oral daily", "value": 4547, "unit": "mL/h"}, {"measurement": "CL/F", "setting": "[5]; Day 21, Cohort 2, 100 mg/m^2 (160 mg), oral daily", "value": 3213, "unit": "mL/h"}, {"measurement": "CL/F", "setting": "[5]; Day 21, Cohort 3, 165 mg/m^2 (300 mg), oral daily", "value": 1502, "unit": "mL/h"}, {"measurement": "CL/F", "setting": "[5]; Day 21, Cohort 4, 176-245 mg/m^2 (340-540 mg), oral daily", "value": 3509, "unit": "mL/h"}, {"measurement": "CL/F", "setting": "[5]; Day 21, Cohort 5 (BID), 340 mg/m^2 (330 mg), oral twice daily", "value": 4746, "unit": "mL/h"}, {"measurement": "CL/F", "setting": "[5]; Day 21, Cohort 5, 340 mg/m^2 (620 mg), oral daily", "value": 1323, "unit": "mL/h"}, {"measurement": "CL/F", "setting": "[5]; Day 21, Cohort 6 (BID), 240 mg, oral twice daily", "value": 4003, "unit": "mL/h"}, {"measurement": "AUC(0-inf)", "setting": "[5]; [6]", "value": 24400, "unit": "ng·h/mL"}, {"measurement": "Vd/F", "setting": "[5]; [6]", "value": 50.5, "unit": "L"}, {"measurement": "AUC(0-inf)", "setting": "[5]; [7]", "value": 36800, "unit": "ng·h/mL"}, {"measurement": "AUC(0-t)", "setting": "[5]; [7]", "value": 29900, "unit": "ng·h/mL"}, {"measurement": "Vd/F", "setting": "[5]; [7]", "value": 61.6, "unit": "L"}, {"measurement": "AUC(0-inf)", "setting": "[5]; [8]", "value": 125000, "unit": "ng·h/mL"}, {"measurement": "AUC(0-t)", "setting": "[5]; [8]", "value": 91800, "unit": "ng·h/mL"}, {"measurement": "Vd/F", "setting": "[5]; [8]", "value": 40, "unit": "L"}, {"measurement": "Cmax", "setting": "[5]; [9]", "value": 6250, "unit": "ng/mL"}, {"measurement": "Tmax", "setting": "[5]; [9]", "value": 1, "unit": "h"}, {"measurement": "half-life", "setting": "[5]; [9]", "value": 5.5, "unit": "h"}, {"measurement": "Cmax", "setting": "[5]; [10]", "value": 9200, "unit": "ng/mL"}, {"measurement": "Tmax", "setting": "[5]; [10]", "value": 1.5, "unit": "h"}, {"measurement": "half-life", "setting": "[5]; [10]", "value": 6.2, "unit": "h"}, {"measurement": "AUC(0-inf)", "setting": "[5]; [11]", "value": 143000, "unit": "ng·h/mL"}, {"measurement": "AUC(0-t)", "setting": "[5]; [11]", "value": 99100, "unit": "ng·h/mL"}, {"measurement": "Vd/F", "setting": "[5]; [11]", "value": 61.4, "unit": "L"}, {"measurement": "Cmax", "setting": "[5]; [12]", "value": 8120, "unit": "ng/mL"}, {"measurement": "Tmax", "setting": "[5]; [12]", "value": 2, "unit": "h"}, {"measurement": "half-life", "setting": "[5]; [12]", "value": 7.5, "unit": "h"}, {"measurement": "Cmax", "setting": "[5]; [13]", "value": 9270, "unit": "ng/mL"}, {"measurement": "Tmax", "setting": "[5]; [13]", "value": 2, "unit": "h"}, {"measurement": "half-life", "setting": "[5]; [13]", "value": 13.2, "unit": "h"}, {"measurement": "oral bioavailability", "setting": "[5]; human cancer patients", "value": "orally bioavailable"}, {"measurement": "increase in drug levels with increasing dose", "setting": "[5]; human patients, oral tablets", "value": "more-than-proportional increase"}, {"measurement": "AUC(0-t)", "setting": "[5]; 50 mg/m^2, Day 01, Cohort 1, 50 mg/m^2 (100 mg), oral daily", "value": 20600, "unit": "ng·h/mL"}, {"measurement": "Cmax", "setting": "[5]; [14]", "value": 1900, "unit": "ng/mL"}, {"measurement": "Tmax", "setting": "[5]; [14]", "value": 2, "unit": "h"}, {"measurement": "half-life", "setting": "[5]; [14]", "value": 8.5, "unit": "h"}, {"measurement": "AUC(0-inf)", "setting": "[5]; 50 mg/m^2, Day 19, Cohort 1, 50 mg/m^2 (100 mg), oral daily", "value": 30800, "unit": "ng·h/mL"}]}]}
